Reference: ChEMBL document CHEMBL4613318, “Benzofuran-Based Carboxylic Acids as Carbonic Anhydrase Inhibitors and Antiproliferative Agents against Breast Cancer” (ACS Med Chem Lett, 2020)

What was measured:
Carbonic anhydrase 1 = Carbonic anhydrase 1 (Homo sapiens, UniProt P00915); experiment: Inhibition of recombinant human carbonic anhydrase 1 preincubated with enzyme for 15 mins by phenol red dye based stopped flow CO2 hydration assay
Carbonic anhydrase 2 = Carbonic anhydrase 2 (Homo sapiens, UniProt P00918); experiment: Inhibition of recombinant human carbonic anhydrase 2 preincubated with enzyme for 15 mins by phenol red dye based stopped flow CO2 hydration assay
Carbonic anhydrase 9 = Carbonic anhydrase 9 (Homo sapiens, UniProt Q16790)
Description: Inhibition of recombinant human carbonic anhydrase 9 preincubated with enzyme for 15 mins by phenol red dye based stopped flow CO2 hydration assay

Carbonic anhydrase 12 = Carbonic anhydrase 12 (Homo sapiens, UniProt O43570); experiment: Inhibition of recombinant human carbonic anhydrase 12 preincubated with enzyme for 15 mins by phenol red dye based stopped flow CO2 hydration assay
Carbonic anhydrase 12, sequence (O43570 whole entry): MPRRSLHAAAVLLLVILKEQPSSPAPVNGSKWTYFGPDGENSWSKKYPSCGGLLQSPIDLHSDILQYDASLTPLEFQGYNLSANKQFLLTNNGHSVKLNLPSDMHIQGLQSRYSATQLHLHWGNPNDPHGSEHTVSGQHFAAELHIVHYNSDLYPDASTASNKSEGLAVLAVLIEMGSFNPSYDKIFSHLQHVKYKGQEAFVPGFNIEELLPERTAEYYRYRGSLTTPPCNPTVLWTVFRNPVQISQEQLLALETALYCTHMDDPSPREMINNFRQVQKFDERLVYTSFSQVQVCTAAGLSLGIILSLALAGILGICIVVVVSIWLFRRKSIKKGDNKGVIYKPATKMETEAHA

Homo sapiens [1] = species on record: Homo sapiens; experiment: (§1) Selectivity index, ratio of Ki for recombinant human carbonic anhydrase 1 preincubated with enzyme for 15 mins by phenol red dye based stopped flow CO2 hydration assay to Ki for recombinant human carbonic anhydrase 12 preincubated with enzyme for 15 mins by phenol red dye based stopped flow CO2 hydration assay
Homo sapiens [2] = species on record: Homo sapiens; experiment: as §1, with “carbonic anhydrase 2 preincubated with” for “carbonic anhydrase 1 preincubated with”
Homo sapiens [3] = species on record: Homo sapiens; experiment: as §1, with “9” for “12”
MCF7 = experiment: Antiproliferative activity against human MCF7 cells assessed as reduction in cell viability incubated for 48 hrs by SRB assay; assay type: functional, cell-based; conditions: MCF7, 48 h
MDA-MB-231 = experiment: cells; conditions: Homo sapiens, MDA-MB-231, 48 h
Homo sapiens [4] = species on record: Homo sapiens; experiment: as §1, with “anhydrase 2” for “anhydrase 1”, “anhydrase 9” for “anhydrase 12”

Carbonic anhydrase 1, sequence (P00915 whole entry): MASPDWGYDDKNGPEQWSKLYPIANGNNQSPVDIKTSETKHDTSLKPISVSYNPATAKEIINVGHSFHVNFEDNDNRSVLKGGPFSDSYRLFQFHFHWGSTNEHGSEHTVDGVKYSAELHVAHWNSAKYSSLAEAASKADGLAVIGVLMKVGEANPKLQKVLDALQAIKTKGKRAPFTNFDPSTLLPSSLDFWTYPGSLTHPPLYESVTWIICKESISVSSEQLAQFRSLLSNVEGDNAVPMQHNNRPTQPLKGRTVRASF

Row | Compound | Ki (Carbonic anhydrase 1) [µM] | Ki (Carbonic anhydrase 2) [µM] | Ki (Carbonic anhydrase 9) [µM] | Ki (Carbonic anhydrase 12) [µM] | Ratio Ki (Homo sapiens [1]) | Ratio Ki (Homo sapiens [2]) | Ratio Ki (Homo sapiens [3]) | IC50 (MCF7) [µM] | IC50 (MDA-MB-231) [µM] | Ratio Ki (Homo sapiens [4])
1 | Cc1c(NC(=O)Nc2ccc(C(=O)O)cc2)oc2ccccc12 | 4.5 | 3.1 | 5.1 | 0.88 | 5 | 4 |  |  |  | 
2 | O=C(Nc1cc2cc(Br)ccc2o1)Nc1ccccc1C(=O)O | > 100 | 4.1 | 5.1 | 8 | 13 |  | 20 |  |  | 
3 | COc1cccc2c1C(=O)c1c(O)c3c(c(O)c1C2=O)C[C@@](O)(C(=O)CO)C[C@@H]3O[C@H]1C[C@H](N)[C@H](O)[C@H](C)O1 [DOXORUBICIN] |  |  |  |  |  |  |  | 1.43 | 2.36 | 
4 | Cc1c(NC(=O)Nc2ccccc2C(=O)O)oc2ccccc12 | > 100 | 7.9 | 1.6 | 3.4 | > 29 | 2 | > 63 |  |  | 5
5 | O=C(Nc1ccc(C(=O)O)cc1)Nc1cc2cc(Br)ccc2o1 | 20.5 | 7.2 | 0.56 | 1.6 |  |  |  |  |  | 
6 | Cc1c(NC(=O)Nc2ccc(C(=O)NCC(=O)O)cc2)oc2ccccc12 | 64.7 | 25.8 | 35.7 | 2.7 | 24 | 10 | 2 |  |  | 
7 | O=C(O)CNC(=O)c1ccc(NC(=O)Nc2cc3cc(Br)ccc3o2)cc1 | > 100 | 67.1 | 19 | 10.1 | 10 | 7 | 5 |  |  | 4
8 | Cc1c(NC(=O)Nc2cccc(C(=O)O)c2)oc2ccccc12 | 32.8 | 10.1 | 0.91 | 2.2 |  |  |  |  |  | 
9 | O=C(Nc1cccc(C(=O)O)c1)Nc1cc2cc(Br)ccc2o1 | 33.2 | 37 | 0.79 | 2.3 |  |  |  |  |  | 
